The text below walks through data of PubChem BioAssay AID1996.

By solubility (kinetic) is commonly meant solubility judged after dilution from a stock solution rather than from solid.

Each structure is given as a SMILES string. ≈ marks a conversion by molar mass, not a printed value. Some results are limits rather than exact numbers.

For this data set the following is noted: buffer; pH 7.4; 200.0 µM.
With `O=C(CNC(=O)c1cccs1)NCCc1ccco1`, the kinetic solubility was above 41.7 µg/mL. In the case of `Cc1cc(C(=O)Nc2ccc(F)cc2)c2ccccc2n1`, the kinetic solubility is below 0.3 µg/mL. With `O=C(O)c1cc2c(cc1NC(=O)C1CCCC1)OCCO2`, the kinetic solubility is above 43.7 µg/mL. The value for `O=C(CN1CCCCCC1)Nc1cc(C(F)(F)F)ccc1Cl` was below 0.4 µg/mL; that for `N#C/C(=C\Nc1ccc(Cl)cn1)S(=O)(=O)c1ccccn1` was 3.7 µg/mL (≈ 11.5 µM). The value for `Cc1ccc(-n2c(C)nc3ccccc3c2=O)c(C)c1` was above 39.6 µg/mL. With `CC(=O)c1nc2ccccc2n1Cc1ccccc1`, the solubility (kinetic) is 14.5 µg/mL (≈ 57.9 µM). The molecule `COC(=O)c1sccc1NC(=O)NC1CCCCC1` returned a solubility (kinetic) of 23.8 µg/mL (≈ 84.3 µM). For the molecule `Cc1cc(=O)n2c(n1)NC(=NCc1ccccc1)NC2c1ccccc1` (centres undefined), the solubility (kinetic) is above 51.8 µg/mL. The value for `COc1ccc(OC)c(/C=C2\NC(=O)NC2=O)c1` was 9.5 µg/mL (≈ 38.3 µM). For `CCCn1c(=O)c(C(=O)Nc2cc(C)ccn2)c(O)c2ccccc21`, the solubility (kinetic) is below 0.2 µg/mL.

With `CNC(=S)Nc1cc(C)ccc1OC(F)F`, the solubility (kinetic) is above 36.9 µg/mL. The value for `COc1ccc(NC(=O)Cc2ccsc2)c(OC)c1` was above 41.6 µg/mL; that for `COC(=O)n1c(=O)oc2ccc(S(=O)(=O)N3CCCCC3)cc21` was above 51.1 µg/mL; that for `CCc1nc(C)cc2c1sc1ccccc12.Cl` was 1 µg/mL. With `O=[N+]([O-])c1ccc(CSc2ccc(S(=O)(=O)N3CCCCC3)cn2)cc1`, the kinetic solubility turned out to be 2.4 µg/mL (≈ 6.1 µM).

For `O=C(NCC(c1ccco1)N1CCCCC1)c1cccnc1` (centres undefined), the kinetic solubility is above 44.9 µg/mL.

Molecule `COc1ccc(C(=O)COC(=O)CN2C(=O)C3CC=CCC3C2=O)c(OC)c1` (centres undefined) registered a kinetic solubility of 57.6 µg/mL (≈ 149 µM). In turn, `CSc1ncccc1C(=O)NC1CCCCCC1` gave a solubility (kinetic) of 35.5 µg/mL (≈ 134 µM). The value for `O=c1[nH]c(COc2ccccc2)nc2ccccc12` was 4.1 µg/mL (≈ 16.3 µM); that for `Fc1ccc(-n2c(-c3ccco3)n[nH]c2=S)cc1` was above 39.2 µg/mL.

Molecule `CCOC(=O)c1ccc(N2C(=O)C=C(N3CCOCC3)C2=O)cc1` displayed a solubility (kinetic) above 49.6 µg/mL. The value for `Cc1ccc(NC(=O)COC(=O)CNC(=O)C2CCCCC2)cc1S(=O)(=O)N(C)C` was above 65.9 µg/mL; that for `Cc1cccc(C)c1OCC(O)CNC(C)c1ccccc1.Cl` (centres undefined) was above 50.4 µg/mL. In the case of `COC(=O)[C@H](Cc1ccccc1)NC(=O)Nc1ccc(OC)cc1` it was 47 µg/mL (≈ 143 µM).

Molecule `O=C(NCCC(=O)N1CCc2ccccc21)c1ccccc1Cl` returned a solubility (kinetic) of 32.1 µg/mL (≈ 97.6 µM). The value for `Cc1ccc2nc(-c3cccnc3)c(Nc3ccccc3C)n2c1` was 2.2 µg/mL (≈ 7 µM); that for `O=C(OCC(=O)c1ccc[nH]1)c1ccc(Cl)c(Cl)c1` was 6.8 µg/mL (≈ 22.8 µM); that for `O=C(Nc1cccnc1Cl)c1cccc(S(=O)(=O)N2CCOCC2)c1` was above 57.3 µg/mL.

As for `COc1nc(Nc2ccccc2F)nc(OC)n1`, the solubility (kinetic) is above 37.5 µg/mL. The value for `Cc1nc(NC(=O)CSC2=NCCS2)sc1C(=O)N(C)C` was above 51.7 µg/mL; that for `CCOC(=O)C1CCCN(C/C=C/c2ccccc2)C1` (centres undefined) was 20.5 µg/mL (≈ 75 µM). As for `COc1ccc(-n2ccnc2)cc1`, the solubility (kinetic) was above 26.1 µg/mL. The value for `Cc1cccc(Nc2nc(N)nc(CCl)n2)c1` was above 37.5 µg/mL; that for `CC(=O)c1c(COC(=O)c2ccc(F)cc2)nc2ccccc2[n+]1[O-]` was 2.4 µg/mL (≈ 7.05 µM). The value for `CCn1c(SCc2ccccc2)nc2c(c1=O)SCC2` was 13.5 µg/mL (≈ 44.3 µM); that for `CCOC(=O)C1CCCN(C(=O)c2cccc3ccccc23)C1` (centres undefined) was above 46.7 µg/mL; that for `O=C1C(Cl)=C(N2CCCC2)C(=O)N1c1ccc(F)cc1` was 7.4 µg/mL (≈ 25.1 µM). As for `COc1ccc(N)cc1NC(=O)CN1CCCC1`, the solubility (kinetic) was above 37.4 µg/mL. `CCN1CCN(C(=O)C23CCC(C)(C(=O)C2Br)C3(C)C)CC1` (centres undefined) showed a solubility (kinetic) above 55.7 µg/mL. In the case of `CNC(=O)/C(C#N)=C/c1c(N2CCCCCC2)nc2c(C)cccn2c1=O` it was 50.4 µg/mL (≈ 138 µM); in that of `O=C(CSc1nc(C2CC2)nc2ccccc12)Nc1cccc(O)c1`, below 0.3 µg/mL; in that of `COc1cc(C=O)ccc1OC(=O)N1CCOCC1`, above 39.8 µg/mL. In the case of `Cc1cccc(OCCN2C(=O)c3ccccc3C2=O)c1` it was 4.6 µg/mL (≈ 16.4 µM); in that of `CN(C)c1ncnc(N(C)C)c1[N+](=O)[O-]`, above 31.7 µg/mL; in that of `C=CCn1c(SCC(=O)Nc2ccc(C(=O)O)cc2)nc2scc(-c3ccccc3)c2c1=O`, above 71.6 µg/mL. In the case of `CCOc1ccccc1NC(=O)COC(=O)/C=C/c1cccs1` it was 3.1 µg/mL (≈ 9.35 µM); in that of `CCOc1ccc(N/C=C/C(=O)c2cc(OC)c(OC)c(OC)c2)cc1`, below 0.8 µg/mL; in that of `CC(OC(=O)CN1C(=O)c2ccccc2C1=O)C(=O)NC1CCCC1` (centres undefined), above 51.7 µg/mL.

Molecule `CCOc1ccc(/C=C/C(=O)NC2CCCCC2)cc1` displayed a solubility (kinetic) below 0.6 µg/mL. In the case of `O=C(Nc1cc(Cl)ccn1)C1(c2ccccc2)CC1(Cl)Cl` (centres undefined) it was below 0.4 µg/mL; in that of `COc1nc(-c2ccc(Cl)cc2Cl)nc2ccccc12`, below 0.3 µg/mL; in that of `O=C(OCc1nc2ccsc2c(=O)[nH]1)c1ccco1`, above 41.4 µg/mL. In the case of `Cc1ccc(C)c(C(=O)CN2C(=O)NC3(CCCCCCC3)C2=O)c1` it was 2.6 µg/mL (≈ 7.59 µM); in that of `COc1ccc(NC(=O)N2C[C@@H]3C[C@@H](C2)c2cccc(=O)n2C3)cc1`, above 50.9 µg/mL; in that of `Cc1ccc(-c2nc(CN3CCN(c4cnccn4)CC3)c(C)o2)o1`, 38.3 µg/mL (≈ 113 µM). The value for `COc1ccc2nc(NC(=O)c3cccs3)sc2c1` was below 0.3 µg/mL.

Molecule `CCc1noc(C)c1C(=O)Nc1nc(-c2ccccc2)cs1` yielded a kinetic solubility of 5 µg/mL (≈ 16 µM). `CCOC(=O)c1ccc(N2C(=O)Cc3ccccc3C2=O)cc1` came in with a kinetic solubility above 46.4 µg/mL. In the case of `Cc1ccc(N(Cc2ccccc2)C(=O)c2ccc(F)cc2)cc1` it was 9.1 µg/mL (≈ 28.5 µM). In the case of `O=C(Nc1ccc(F)cc1)c1csc(Cc2ccccc2)n1` it was 1.3 µg/mL (≈ 4.16 µM); in that of `COc1cc(NC(=O)CCN2CCOCC2)cc(OC)c1`, above 44.2 µg/mL. In the case of `COc1cccc(OCCNc2ccc([N+](=O)[O-])cn2)c1` it was 4.7 µg/mL (≈ 16.2 µM); in that of `Cc1ccc(-c2ocnc2C(=O)Nc2nc(C)cs2)cc1`, 1.1 µg/mL (≈ 3.67 µM). In the case of `O=C(NC(=S)Nc1ccccc1N1CCCC1)c1cccs1`, the solubility (kinetic) was 3.2 µg/mL (≈ 9.65 µM). Compared with the last molecule, the solubility kinetic is about 2.9-fold higher. Molecule `CC(=O)c1ccc(NC(=S)Nc2ccc3[nH]c(=O)[nH]c3c2)cc1` gave a kinetic solubility of 5.6 µg/mL (≈ 17.2 µM). In the case of `Nc1nc2ccccc2cc1S(=O)(=O)c1ccccc1` it was 1.1 µg/mL (≈ 3.87 µM); in that of `COCC(=O)Nc1ccc(Br)c(C)c1`, above 38.7 µg/mL. In the case of `Cc1nc(-c2ccccn2)nc(N(C)c2ccccc2)c1Cl` it was 41.7 µg/mL (≈ 134 µM); in that of `S=C(NCc1ccc(Cl)cc1)NN1CCOCC1`, above 42.9 µg/mL. The value for `CCc1ccccc1N(C(C)=O)c1nc(CCl)cs1` was above 44.2 µg/mL. In the case of `CCCn1c(SCC(=O)N2CCc3ccccc3C2)nc(O)cc1=O`, the solubility (kinetic) was above 53.9 µg/mL. The value for `Cn1c(=O)c2c(ncn2CCC(=O)N/N=C/c2cccnc2)n(C)c1=O` was above 53.3 µg/mL; that for `CC1(C)CC(=O)c2cnc(NC(=O)CSC(=S)N3CCCCC3)nc2C1` was 2.9 µg/mL (≈ 7.39 µM).

`CCc1ccc(N2CC(C(=O)NCCC3=CCCCC3)CC2=O)cc1` (centres undefined) came in with a kinetic solubility of 6.8 µg/mL (≈ 20 µM). `Cc1cccc(OCC(=O)NCCNC(=O)c2ccco2)c1`: the solubility (kinetic) amounted to 45 µg/mL (≈ 149 µM). The value for `CC1(c2ccc([N+](=O)[O-])cc2)NC(=O)NC1=O` (centres undefined) was above 35.3 µg/mL; that for `O=C(CSc1ccccn1)NC1CCCC1` was above 35.4 µg/mL; that for `Cc1cnc(NC(=O)CCN2C(=O)C3CCCCC3C2=O)s1` (centres undefined) was 39.3 µg/mL (≈ 122 µM).

`CS(=O)(=O)N1CCN=C1SCc1ccccc1` displayed a solubility (kinetic) above 40.6 µg/mL. `CC(C)n1c(Oc2ccc(F)cc2)nc2c1c(=O)n(C)c(=O)n2C` displayed a kinetic solubility of 8.1 µg/mL (≈ 24.4 µM).

`O=C(COC(=O)c1cc(=O)[nH]c(=O)[nH]1)Nc1cccc(Cl)c1` returned a kinetic solubility above 48.6 µg/mL.

As for `Cc1ccc(C(=O)O/N=C/c2ccc(N(C)C)cc2)cc1`, the solubility (kinetic) stood at 2.4 µg/mL (≈ 8.5 µM).

With `COc1ccc(-n2ccnc2SCC(=O)NO)cc1`, the solubility (kinetic) is above 41.9 µg/mL. As to `Cc1oc(/N=C/c2cccc([N+](=O)[O-])c2)c(C#N)c1C`, the solubility (kinetic) amounted to 7.2 µg/mL (≈ 26.7 µM). The value for `COc1cnc(-c2ccccn2)nc1Oc1cccc(C(F)(F)F)c1` was 37.4 µg/mL (≈ 108 µM). In the case of `O=C(CCN1C(=O)c2cccc3cccc(c23)C1=O)NCC1CCCO1` (centres undefined) it was above 52.9 µg/mL; in that of `COC(=O)CCC(=O)Nc1ccc2oc3c(c2c1)CCCC3`, 43.5 µg/mL (≈ 144 µM). In the case of `CCc1ccc2[nH]c(=O)c(Cc3ccccc3)c(O)c2c1` it was above 41.9 µg/mL. As to `O=Cc1ccccc1OCCCOc1cccc2cccnc12`, the kinetic solubility turned out to be 9.7 µg/mL (≈ 31.6 µM).

Take `COc1ccccc1NC(=O)C1CCN(S(C)(=O)=O)CC1`: the kinetic solubility was above 46.9 µg/mL. In turn, `CC(=O)Nc1ccc2nsnc2c1` registered a solubility (kinetic) above 29 µg/mL. The value for `CN(C)S(=O)(=O)c1cccc(NC(=O)Cc2ccsc2)c1` was above 48.7 µg/mL; that for `O=C(CN1C(=O)c2ccccc2S1(=O)=O)c1ccc(F)cc1` was 9.7 µg/mL (≈ 30.4 µM); that for `CC1(C)OC(C)(C)/C(=C\c2ccc(OCC(N)=O)cc2)C1=O` was 28 µg/mL (≈ 92.3 µM). In the case of `Cc1cc(=O)[nH]c(SCC(=O)Nc2ccccc2[N+](=O)[O-])n1` it was above 48 µg/mL; in that of `O=C(Cc1c[nH]c2ccccc12)Nc1ccc(N2CCOCC2)cc1`, 10.1 µg/mL (≈ 30.1 µM).

The molecule `Oc1cc2c(cc1CN1CCN(c3ccc(F)cc3)CC1)OCO2` registered a kinetic solubility of 5.7 µg/mL (≈ 17.3 µM). Compared with the last molecule, the solubility kinetic is about 1.8-fold lower.

Molecule `Cc1ccc(NC(=O)Nc2cc(S(C)(=O)=O)ccc2Cl)cc1` had a solubility (kinetic) of 1.1 µg/mL (≈ 3.25 µM). In the case of `O=C(Nc1cc(C(F)(F)F)ccc1-n1cncn1)C1CC1` it was above 44.4 µg/mL.

In turn, `Cc1cc(Br)ccc1NC(=O)CN(C)C(=O)C1=COCCO1` displayed a kinetic solubility above 55.4 µg/mL. The value for `O=S(=O)(NCCCN1CCOCC1)c1ccc2ccccc2c1` was above 50.2 µg/mL; that for `CCOc1ccc2nc(NC(=O)c3ccc(C)o3)sc2c1` was 0.6 µg/mL (≈ 1.98 µM).

The molecule `CC(=O)c1c(C)[nH]c(C(=O)OCc2csc(CC(=O)Nc3ccccc3C)n2)c1C` displayed a kinetic solubility of 4.2 µg/mL (≈ 9.87 µM). Against the preceding molecule, the solubility kinetic is about 7-fold higher.
